Series [1] relates to human bladder cancer cells. The format is cell-based. Particulars: 48 h. On the procedure: XI. Biological Experiments
Cell Counting Kit (CCK-8) was used to evaluate the proliferation inhibition activity of the compounds, and the half inhibitory concentration IC50 value was determined by single-concentration primary screening and multi-concentration.
Fetal Bovine Serum (FBS) 04-001-1acs, Biological industries; PBS phosphate buffer (PB180327), penicillin-streptomycin sulfate double resistant mixture (100× ) […]
Leibovitz's L-15 medium (PM151010), Wuhan Punosai Life Technology Co., LTD.
CCK-8 Kit, Biosharp life sciences; Trypsin-edta Digestive Solution (05200-056), GIBCO; Cellular DMSO (D2650 -100ML), SIGMA; 96-well cell culture plate, Corning Life Sciences (Wujiang) Co., LTD. 25, 75cm2 cell culture bottle, Corning Life Sciences (Wujiang) Co., LTD. Blood cell counting plate, Shanghai Qiujing Biochemical Reagent Instrument Co., LTD. Cisplatin (D8810), Solarbio life sciences;
Instruments and equipment
Super clean workbench (sw-cj-2fd), Sujing Aetna; Microscope (nib -100), Ningbo Yongxin Optical Co., Ltd; Carbon dioxide cell incubator (MCO -18AC), Phcbi; Electric constant temperature water bath pot (HWS -24), Shanghai Yiheng Technology Co., Ltd; Multifunctional microplate reader (Multiskan MK3), Thermo; One ten-thousandth balance (MS105DU), METTLER; Centrifuge (TD4N), ChangshaYingtai Instrument Co., Ltd; Mixer (SCI-VS), Selo Czech Republic, USA.
The samples were dissolved in the cell -grade DMSO after accurately weighing to generate the 10 mM drug solution. The drug solution was further diluted to tenfold detection concentration by cell culture medium.
Standard Operation Procedure
Detection principle of cytotoxicity (CCK -8 method):
The detection principle is that the CCK-8 reagent contains WST-8, which is reduced S52 to a highly water-soluble yellow methyl product (formazan) by dehydrogenase in the cell mitochondria under the action of electron carrier 1-methoxy-5-methylphenazine dimethyl sulfate (1-methoxy PMS). The number of the nail products produced is directly proportional to the number of living cells.
(1) Inoculate cells: The cells were prepared into single cell suspension with the culture medium containing 10% fetal bovine serum, and the 96 well plates were inoculated with 90 uL cell culture medium (Adherent cell viewed 5×10^4/mL and Suspension cell viewed 9×10^4/mL) per well, then cultured at 5% CO2 and 37 ℃ for 24 hours.
(2) Add the sample solution to be tested: Add 10 µL sample solution to each well. One concentration was set for each sample during preliminary screening and three multiple holes were set for each concentration. Eight concentration gradients were set for each sample for IC50 determination and three multiple holes were set for each concentration.
The 96 well plates were cultured at 5% CO2 and 37 ℃ for 48 hours. The experiment was divided into a blank group, control group and drug group.
(3) Color development: The old culture medium and drug solution of adherent cells were sucked out, then 100 µL of CCK-8 solution (diluted ten times with the basic medium) was added and the suspension cells were directly added 10 µL of CCK-8 stock solution. Culture at 37 ℃ with 5% CO2 for 1-4 h (dark operation, real-time observation).
(4) Result detection: The absorbance was measured at 450 nm with an enzyme labeling instrument and the original data and results were recorded.
(5) The toxicity is expressed by cell inhibition, and the calculation formula is as follows:
Cell inhibition (%) = (ODControl-ODDrug) / (ODControl-ODBlank)×100%. The IC50 was calculated by the software graphpad prism 8 (version 8.0.2, from GraphPad SoftwareInc)，and the experimental results are expressed in ± SD.
6) Positive control: Cisplatin.

The nature of series [2]: Circular dichroism measurement of α-helicity. The format is physicochemical. As to conditions: 40% TFE/H2O, 0.05 mM peptide, room temperature, path length 1 mm, 180-260 nm, average of at least 3 values. On the procedure: VIII. Circular Dichroism Measurements.[22]
General Procedure for the measurement of CD spectra were mensurated at a wavelength ranging from 180 to 260 nm, with a path length of 1mm and a scanning speed of 200 nm/min at room temperature on the J-1500 (Jasco, Japan) spectropolarimeter. The lyophilized solid linear and staple peptides were dissolved in deionized water (bubbled with nitrogen for 30 minutes) to afford a 1 mM solution. The 1 mM stock solution was diluted with six different solvent systems (H2O, 5%, 10%, 20%, 30%, 40% TFE/H2O) to afford 0.05 mM solutions. The data described is the average of at least 3 values. The mean peptide ellipticity [θ] was calculated using equation (1) and plotted against […]
θ: ellipticity [mdeg], C: peptide molar concentration [M], Np: number of peptide units, l: cell path length [cm].[6]
Figure S20: The CD spectroscopy of 5y was measured in six different solvent systems Through the above data, we obviously saw that the stapled peptide 5y had the best helicity (34.7%) in 40% solution of TFE/H2O, and then we conducted CD test on the active peptide QN-16 before and after stapling.

Another series deals with chymotrypsin. In words: Proteolysis assay with chymotrypsin. The format is in vitro ADME. Particulars: chymotrypsin solution, 500 µL of 500 µM peptide in phosphate buffer pH 7.4 + 10 µL chymotrypsin 100 µg/mL, 37 °C, HPLC integration relative to starting peptide, read-out: peptide degraded under chymotrypsin for 1.5 h. On the procedure: IX. Proteolysis assays.
500 µL of peptide TR-12 (500 µM, 2 µL DMSO was added to help solubilization) in phosphate buffer (pH 7.4) was mixed and incubated with 10 µL of the protease solution (Chymotrypsin – 100 µg/mL) at 37 ℃. At 0, 10, 20 , 40, 60, 90 minutes, aliquots of 50 µL were quenched with 50 µL of 1% TFA solution in MeCN respectively and subjected to HPLC analysis. Peptide concentrations at different time points were quantified by integration of the HPLC trace relative to the starting […]
500 µL of peptide 5o (500 µM, 2 µL DMSO was added to help solubilization) in phosphate buffer (pH 7.4) was mixed and incubated with
Table S2. Proteolytic assays of peptide TR-12 and 5o with chymotrypsin.
Time/Peak area 0 min 10 min 20 min 40 min 60 min 90 min

The nature of series [3]: Serum stability study in Foetal Bovine Serum. Particulars: 300 µL of 1 mg/mL peptide in deionized water + 300 µL Foetal Bovine Serum, 37 °C, CH3CN precipitation, RP-HPLC peak area of intact peptide.
Experimental: The peptide of interest (300 µ L of 1 mg/mL stock solution in deionized water) was added to 300 µ L of
Foetal Bovine Serum and incubated at 37° C in an incubator. At each time point, an aliquot of 50 µ L was
drawn and an equal volume of ice-chilled CH3CN was added to the aliquot to precipitate serum proteins.
The cloudy mixture was centrifuged at 12,000 rpm for 10 min and then supernatant was removed. The
level of degradation was determined by the integration of the area under the RP-HPLC peak
corresponding to the intact peptide.
Before testing the serum stability, the standard curve (the relationship between concentration and peak
area) was established by RP-HPLC for CP-9 and TR-12 and QN-16 and 5h and 5o and 5w.
shift their retention times later.

From publication PMC12596731, “Cys–Lys stapling for unprotected peptides via tunable linkers” (National Science Review, 2025) come the findings set out here.

By IC50 is commonly meant the point on the concentration scale where inhibition reaches its midpoint. Read a low IC50 as greater potency.

Take `CC(=O)N[C@H](C(=O)N[C@@H](CO)C(=O)N[C@@H](Cc1ccccc1)C(=O)N[C@H]1CCCCNC(=O)CCC/C(=C\Cl)SSC[C@@H](C(=O)N[C@@H](CC(C)C)C(=O)N[C@@H](CC(C)C)C(=O)N[C@@H](CO)C(=O)N[C@@H](CCCNC(=N)N)C(N)=O)NC(=O)[C@H](Cc2c[nH]c3ccccc23)NC(=O)[C@H](Cc2ccc(O)cc2)NC(=O)[C@H](CCC(N)=O)NC1=O)[C@@H](C)O` [Peptide 5l]: the IC50 in series [1] worked out at 14.7 µM. Moreover, the “Helicity (α-helicity by CD)” value in series [2] is reported as 81.4%.
`CC(=O)N[C@H](C(=O)N[C@@H](CO)C(=O)N[C@@H](Cc1ccccc1)C(=O)N[C@H]1CCCCNC(=O)CCCC/C(=C\Cl)SSC[C@@H](C(=O)N[C@@H](CC(C)C)C(=O)N[C@@H](CC(C)C)C(=O)N[C@@H](CO)C(=O)N[C@@H](CCCNC(=N)N)C(N)=O)NC(=O)[C@H](Cc2c[nH]c3ccccc23)NC(=O)[C@H](Cc2ccc(O)cc2)NC(=O)[C@H](CCC(N)=O)NC1=O)[C@@H](C)O` [Peptide 5o] displayed an IC50 in series [1] of 8.55 µM. Besides, the metabolised at 1.5 h, 490 µM with chymotrypsin stood at 43%.
Take `CC(=O)N[C@H](C(=O)N[C@@H](CO)C(=O)N[C@@H](Cc1ccccc1)C(=O)N[C@H]1CCCCNC(=O)c2cccc(c2)OCC/C(Cl)=C\SSC[C@@H](C(=O)N[C@@H](CC(C)C)C(=O)N[C@@H](CC(C)C)C(=O)N[C@@H](CO)C(=O)N[C@@H](CCCNC(=N)N)C(N)=O)NC(=O)[C@H](Cc2c[nH]c3ccccc23)NC(=O)[C@H](Cc2ccc(O)cc2)NC(=O)[C@H](CCC(N)=O)NC1=O)[C@@H](C)O` [Peptide 5q]: the midpoint of inhibition in series [1], the IC50, lay at 22.4 µM.
`CC(=O)N[C@H](C(=O)N[C@@H](CO)C(=O)N[C@@H](Cc1ccccc1)C(=O)N[C@@H](CCCCN)C(=O)N[C@@H](CCC(N)=O)C(=O)N[C@@H](Cc1ccc(O)cc1)C(=O)N[C@@H](Cc1c[nH]c2ccccc12)C(=O)N[C@@H](CS)C(=O)N[C@@H](CC(C)C)C(=O)N[C@@H](CC(C)C)C(=O)N[C@@H](CO)C(=O)N[C@@H](CCCNC(=N)N)C(N)=O)[C@@H](C)O` [TR-12] returned an IC50 in series [1] of 16.2 µM. In addition, the “time for complete degradation in bovine serum” value in series [3] is no more than 2 h. In the series on chymotrypsin, the metabolised at 1.5 h, 490 µM was 90%. In addition, in series [2], the “Helicity (α-helicity by CD)” value was found to be 44.7%.
As to Ac-CPIMEDRKP-NH2 [CP-9], in series [3], the “time for complete degradation in bovine serum” value was no more than 5 h.
Take “Ac-QSQQTFCNLWRLLKQN-NH2 (also: sidechain bridge or staple (positions not given here)) [Peptide 5v, QN-16 stapled with reagent 3d]”: the “Helicity (α-helicity by CD)” value in series [2] was found to be 60.8%.
On the same count and under the same terms, the value for “Ac-QSQQTFCNLWRLLKQN-NH2 (also: sidechain bridge or staple (positions not given here)) [Peptide 5y, QN-16 stapled with reagent 3m]” was 34.7%; that for Ac-QSQQTFCNLWRLLKQN-NH2 [QN-16] was 30.3%.
